Measurements taken from patent publication US20210317140A1, “Heterocyclic Compounds and Methods of Use” (MEDIVATION TECHNOLOGIES, INC, priority 2013, published 2021).

Assays:
BTK = molecular target: T1, BTK (Homo sapiens, UniProt Q06187); experiment: BTK kinase assay (HotSpot, 33P ATP); assay type: biochemical; details: for BTK @ 0.1 μM (% Inh): 0.1 μM compound; for BTK @ 0.1 μM (% Inh) / BTK @ 1 μM (% Inh): 10 μM ATP; for BTK @ 1 μM (% Inh): 1 μM compound; for IC50: 10 dose IC50, 10 μM ATP
T1 construct: purchased Reaction Biology Corporation
T1 sequence (Q06187 whole entry): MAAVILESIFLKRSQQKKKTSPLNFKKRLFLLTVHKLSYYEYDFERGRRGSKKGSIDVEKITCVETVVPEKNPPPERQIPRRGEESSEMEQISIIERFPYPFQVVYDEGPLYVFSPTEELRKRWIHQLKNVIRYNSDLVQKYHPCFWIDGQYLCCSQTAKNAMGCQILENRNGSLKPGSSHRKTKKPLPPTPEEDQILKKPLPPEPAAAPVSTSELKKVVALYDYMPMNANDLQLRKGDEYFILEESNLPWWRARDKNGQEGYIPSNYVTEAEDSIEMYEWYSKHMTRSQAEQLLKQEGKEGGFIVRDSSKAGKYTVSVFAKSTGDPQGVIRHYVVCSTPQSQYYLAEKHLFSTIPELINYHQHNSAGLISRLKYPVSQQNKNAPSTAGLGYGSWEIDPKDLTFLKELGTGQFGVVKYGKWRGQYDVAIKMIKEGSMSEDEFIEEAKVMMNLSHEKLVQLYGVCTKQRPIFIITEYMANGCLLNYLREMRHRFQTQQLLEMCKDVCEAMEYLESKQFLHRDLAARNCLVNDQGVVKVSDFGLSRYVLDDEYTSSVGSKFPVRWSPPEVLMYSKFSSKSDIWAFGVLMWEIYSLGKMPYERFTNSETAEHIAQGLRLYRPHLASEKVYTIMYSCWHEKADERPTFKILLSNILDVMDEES
Procedure: (§1) Compounds of the invention were profiled in a 10 dose IC50 panel against BTK and PI3Kδ, both provided by Reaction Biology Corporation.
BTK assay: In vitro profiling protein kinases was performed using the “HotSpot” assay platform. Briefly, specific kinase/substrate pairs along with required cofactors were prepared in reaction buffer. Compounds were prepared as 10 mM stock solutions in DMSO. Compounds were delivered into the reaction, followed 15-20 minutes later by addition of a mixture of ATP (Sigma, St. Louis Mo.) and ^33P ATP (Perkin Elmer, Waltham Mass.) to a final concentration of 10 μM. […] IC50 values and curve fits were obtained using Prism (GraphPad Software). Buffer Conditions: 20 mM Hepes (pH 7.5), 10 mM MgCl2, 1 mM EGTA, 0.02% Brij35, 0.02 mg/mL BSA, 0.1 mM Na3VO4, 2 mM DTT, 1% DMSO.

PI3Kδ = molecular target: T2, PI3Kδ (Homo sapiens, UniProt O00329); experiment: PI3Kδ kinase assay (HTRF, PIP3 detection); assay type: biochemical; details: for PI3Kδ @ 0.1 μM (% Inh): 0.1 μM compound; for PI3Kδ @ 0.1 μM (% Inh) / PI3Kδ @ 1 μM (% Inh): 10 μM ATP; for PI3Kδ @ 1 μM (% Inh): 1 μM compound; for IC50: 10 dose IC50, 10 μM ATP
T2 construct: purchased Reaction Biology Corporation
T2 sequence (O00329 whole entry): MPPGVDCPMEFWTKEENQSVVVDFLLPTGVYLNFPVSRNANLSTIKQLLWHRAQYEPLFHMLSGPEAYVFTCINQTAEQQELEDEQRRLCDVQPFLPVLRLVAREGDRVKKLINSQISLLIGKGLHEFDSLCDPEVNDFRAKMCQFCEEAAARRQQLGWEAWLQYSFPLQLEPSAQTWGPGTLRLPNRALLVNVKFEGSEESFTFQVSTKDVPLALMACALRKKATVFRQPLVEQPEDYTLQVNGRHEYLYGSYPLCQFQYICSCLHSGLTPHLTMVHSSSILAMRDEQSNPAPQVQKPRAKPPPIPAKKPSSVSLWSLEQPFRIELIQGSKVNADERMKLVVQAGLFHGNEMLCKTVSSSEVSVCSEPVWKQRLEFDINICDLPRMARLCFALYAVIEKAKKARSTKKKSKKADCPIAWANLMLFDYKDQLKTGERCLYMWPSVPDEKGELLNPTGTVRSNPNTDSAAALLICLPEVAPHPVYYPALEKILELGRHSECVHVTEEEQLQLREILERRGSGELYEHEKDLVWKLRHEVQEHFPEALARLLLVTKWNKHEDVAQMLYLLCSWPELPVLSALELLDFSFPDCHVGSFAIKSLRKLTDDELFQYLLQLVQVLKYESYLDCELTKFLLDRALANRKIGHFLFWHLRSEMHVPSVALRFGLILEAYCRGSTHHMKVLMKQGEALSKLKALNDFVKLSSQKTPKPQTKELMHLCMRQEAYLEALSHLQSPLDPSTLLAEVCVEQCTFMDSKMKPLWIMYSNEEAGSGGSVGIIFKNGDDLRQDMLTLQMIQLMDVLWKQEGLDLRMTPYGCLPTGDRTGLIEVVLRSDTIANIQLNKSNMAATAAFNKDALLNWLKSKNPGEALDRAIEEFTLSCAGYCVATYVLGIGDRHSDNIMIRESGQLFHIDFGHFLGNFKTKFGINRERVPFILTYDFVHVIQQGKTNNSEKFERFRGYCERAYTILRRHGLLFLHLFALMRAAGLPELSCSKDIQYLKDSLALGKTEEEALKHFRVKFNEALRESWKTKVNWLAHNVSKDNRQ
T2 sequence (P27986 whole entry partner): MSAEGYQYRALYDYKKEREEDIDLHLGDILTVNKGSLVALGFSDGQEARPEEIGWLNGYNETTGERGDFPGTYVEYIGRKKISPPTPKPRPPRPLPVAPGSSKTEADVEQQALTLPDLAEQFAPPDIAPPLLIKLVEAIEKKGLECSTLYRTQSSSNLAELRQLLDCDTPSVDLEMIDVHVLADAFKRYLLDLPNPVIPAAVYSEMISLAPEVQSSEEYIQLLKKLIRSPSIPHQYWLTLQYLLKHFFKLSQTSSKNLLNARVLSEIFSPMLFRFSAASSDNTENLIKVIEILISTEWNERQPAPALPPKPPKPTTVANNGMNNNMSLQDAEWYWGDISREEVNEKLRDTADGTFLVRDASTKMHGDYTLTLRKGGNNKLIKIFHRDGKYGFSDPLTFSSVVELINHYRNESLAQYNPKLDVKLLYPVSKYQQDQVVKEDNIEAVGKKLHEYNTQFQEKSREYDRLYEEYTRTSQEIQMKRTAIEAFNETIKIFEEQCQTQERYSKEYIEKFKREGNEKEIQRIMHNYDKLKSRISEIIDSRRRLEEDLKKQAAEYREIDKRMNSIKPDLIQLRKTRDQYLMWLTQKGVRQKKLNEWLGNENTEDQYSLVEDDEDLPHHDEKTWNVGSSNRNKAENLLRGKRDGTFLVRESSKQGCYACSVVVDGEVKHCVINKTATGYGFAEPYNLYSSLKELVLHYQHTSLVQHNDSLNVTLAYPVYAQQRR
Description: as §1
PI3Kδ assay: The PIP3 product is detected by displacement of biotin-PIP3 from an energy transfer complex consisting of Europium labeled anti-GST monoclonal antibody, a GST-tagged pleckstrin homology (PH) domain, biotinylated PIP3 and Streptavidin-Allophycocyanin (APC). […] The PIP3 product formed by PI 3-Kinase(h) activity displaces biotin-PIP3 from the complex resulting in a loss of energy transfer and thus a decrease in signal. This is a 3-step reaction: First, the kinase reaction with PIP2 substrate is carried out in the presence of ATP (10 μM), and the reaction is quenched with stop Solution, and then finally detect by adding Detection Mixture followed by incubation (10 min). Reaction procedure: 1) Prepare substrate in freshly prepared Reaction Buffer. 2) Deliver kinase into the substrate solution and gently mix. 3) Deliver compounds in 100% DMSO (1 μM) into the kinase reaction mixture by Acoustic technology (Echo550; nanoliter range), incubate for 10 min at RT. 4) Deliver ATP into the reaction mixture to initiate the reaction. 5) Incubate for 30 min at 30° C. 6) Quench the reaction with Stop Solution. 7) Add Detection Mixture, and incubate for overnight. […] The emission ratio is converted into μM PIP3 production based on PIP3 standard curves. The nonlinear regression to obtain the standard curve and IC50 values are performed using Graphpad Prism software. Assay Buffer: HEPES 50 mM (pH7.0), NaN3 0.02%, BSA 0.01%, Orthovanadate 0.1 mM, 1% DMSO. Detection buffer: HEPES 10 mM (pH7.0), BSA 0.02%, KF 0.16 M, EDTA 4 mM. Substrate: 10 μM PIP2 substrate (PI(4,5)P2).

Compound	BTK @ 0.1 μM (% Inh) (BTK)	BTK @ 1 μM (% Inh) (BTK)	IC50 (BTK)	PI3Kδ @ 0.1 μM (% Inh) (PI3Kδ)	PI3Kδ @ 1 μM (% Inh) (PI3Kδ)	IC50 (PI3Kδ)
Nc1ncnc2c1c(-c1ccc(CO)cc1)nn2C1Cc2ccccc2C1 [Compound No. 55, {4-[4-amino-1-(2,3-dihydro-1H-inden-2-yl)-1H-pyrazolo[3,4-d]pyrimidin-3-yl]phenyl}methanol]	14.00 % Inh	50.29 % Inh	2090 nM	15.60 % Inh	48.96 % Inh	10400 nM
NC(=O)/C=C/c1nn(C2Cc3ccccc3C2)c2ncnc(N)c12 [Compound No. 58, (2E)-3-[4-amino-1-(2,3-dihydro-1H-inden-2-yl)-1H-pyrazolo[3,4-d]pyrimidin-3-yl]prop-2-enamide]	18.0 % Inh	43.79 % Inh	–	33.15 % Inh	44.88 % Inh	–
CC(=O)Nc1cccc(-c2nn(C3Cc4ccccc4C3)c3ncnc(N)c23)c1 [Compound No. 59, N-{3-[4-amino-1-(2,3-dihydro-1H-inden-2-yl)-1H-pyrazolo[3,4-d]pyrimidin-3-yl]phenyl}acetamide]	14.08 % Inh	19.76 % Inh	–	17.93 % Inh	5.79 % Inh	–
CC(=O)Nc1cc(F)cc(-c2nn(C3Cc4ccccc4C3)c3ncnc(N)c23)c1 [Compound No. 60, N-{3-[4-amino-1-(2,3-dihydro-1H-inden-2-yl)-1H-pyrazolo[3,4-d]pyrimidin-3-yl]-5-fluorophenyl}acetamide]	16.91 % Inh	30.02 % Inh	–	10.65 % Inh	31.35 % Inh	–
COc1cncc(-c2nn(C3Cc4ccccc4C3)c3ncnc(N)c23)c1 [Compound No. 61, 1-(2,3-dihydro-1H-inden-2-yl)-3-(5-methoxypyridin-3-yl)-1H-pyrazolo[3,4-d]pyrimidin-4-amine]	16.63 % Inh	45.41 % Inh	–	32.36 % Inh	71.04 % Inh	–
COc1cc(F)cc(-c2cn(C3Cc4ccccc4C3)c3ncnc(N)c23)c1 [Compound No. 62, 7-(2,3-dihydro-1H-inden-2-yl)-5-(3-fluoro-5-methoxyphenyl)-7H-pyrrolo[2,3-d]pyrimidin-4-amine]	57.13 % Inh	91.61 % Inh	–	17.28 % Inh	43.03 % Inh	–
COc1cc(-c2nn(C3Cc4ccccc4C3)c3ncnc(N)c23)ccc1N [Compound No. 66, 3-(4-amino-3-methoxyphenyl)-1-(2,3-dihydro-1H-inden-2-yl)-1H-pyrazolo[3,4-d]pyrimidin-4-amine]	69.93 % Inh	95.07 % Inh	25.3 nM	17.08 % Inh	53.69 % Inh	461 nM
COc1cc(-c2nn(C3Cc4ccccc4C3)c3ncnc(N)c23)ccc1C(F)(F)F [Compound No. 69, 1-(2,3-dihydro-1H-inden-2-yl)-3-[3-methoxy-4-(trifluoromethyl)phenyl]-1H-pyrazolo[3,4-d]pyrimidin-4-amine]	19.61 % Inh	61.7 % Inh	791 nM	4.96 % Inh	60.21 % Inh	328 nM
Nc1ncnc2c1c(-c1ccnc3[nH]ccc13)nn2C1Cc2ccccc2C1 [Compound No. 70, 1-(2,3-dihydro-1H-inden-2-yl)-3-{1H-pyrrolo[2,3-b]pyridin-4-yl}-1H-pyrazolo[3,4-d]pyrimidin-4-amine]	12.11 % Inh	36.56 % Inh	–	9.29 % Inh	56.41 % Inh	–
CCOc1ccc(-c2nn(C3Cc4ccccc4C3)c3ncnc(N)c23)cc1OC [Compound No. 71, 1-(2,3-dihydro-1H-inden-2-yl)-3-(4-ethoxy-3-methoxyphenyl)-1H-pyrazolo[3,4-d]pyrimidin-4-amine]	24.51 % Inh	71.58 % Inh	392 nM	47.56 % Inh	89.24 % Inh	63.9 nM
Nc1ncnc2c1c(-c1cc(O)cc(OC(F)(F)F)c1)nn2C1Cc2ccccc2C1 [Compound No. 72, 3-[4-amino-1-(2,3-dihydro-1H-inden-2-yl)-1H-pyrazolo[3,4-d]pyrimidin-3-yl]-5-(trifluoromethoxy)phenol]	6.81 % Inh	7.63 % Inh	–	55.46 % Inh	85.89 % Inh	–
COc1ccc(-c2nn(C3Cc4ccccc4C3)c3ncnc(N)c23)cc1N [Compound No. 73, 3-(3-amino-4-methoxyphenyl)-1-(2,3-dihydro-1H-inden-2-yl)-1H-pyrazolo[3,4-d]pyrimidin-4-amine]	72.03 % Inh	95.31 % Inh	30.5 nM	14.37 % Inh	52.39 % Inh	325 nM
Nc1ncnc2c1c(-c1ccc3c(c1)OCCCO3)nn2C1Cc2ccccc2C1 [Compound No. 74, 1-(2,3-dihydro-1H-inden-2-yl)-3-(3,4-dihydro-2H-1,5-benzodioxepin-7-yl)-1H-pyrazolo[3,4-d]pyrimidin-4-amine]	10.82 % Inh	33.05 % Inh	–	10.99 % Inh	65.15 % Inh	–
Nc1ncnc2c1c(-c1ccc3c(c1)OC(F)(F)O3)nn2C1Cc2ccccc2C1 [Compound No. 75, 3-(2,2-difluoro-2H-1,3-benzodioxol-5-yl)-1-(2,3-dihydro-1H-inden-2-yl)-1H-pyrazolo[3,4-d]pyrimidin-4-amine]	10.92 % Inh	29.0 % Inh	–	−0.46 % Inh	15.57 % Inh	–
CCOc1cc(-c2nn(C3Cc4ccccc4C3)c3ncnc(N)c23)ccc1OC(F)(F)F [Compound No. 76, 1-(2,3-dihydro-1H-inden-2-yl)-3-[3-ethoxy-4-(trifluoromethoxy)phenyl]-1H-pyrazolo[3,4-d]pyrimidin-4-amine]	5.47 % Inh	6.5 % Inh	–	−13.69 % Inh	13.55 % Inh	–
CCOc1c(Cl)cc(-c2nn(C3Cc4ccccc4C3)c3ncnc(N)c23)cc1OC [Compound No. 77, 3-(3-chloro-4-ethoxy-5-methoxyphenyl)-1-(2,3-dihydro-1H-inden-2-yl)-1H-pyrazolo[3,4-d]pyrimidin-4-amine]	24.85 % Inh	76.64 % Inh	–	−1.66 % Inh	16.5 % Inh	–
Nc1ncnc2c1c(-c1cccc3[nH]ccc13)nn2C1Cc2ccccc2C1 [Compound No. 78, 1-(2,3-dihydro-1H-inden-2-yl)-3-(1H-indol-4-yl)-1H-pyrazolo[3,4-d]pyrimidin-4-amine]	18.18 % Inh	54.62 % Inh	–	4.96 % Inh	43.86 % Inh	–
CCOc1cc(-c2nn(C3Cc4ccccc4C3)c3ncnc(N)c23)cc(Cl)c1OC(C)C [Compound No. 79, 3-[3-chloro-5-ethoxy-4-(propan-2-yloxy)phenyl]-1-(2,3-dihydro-1H-inden-2-yl)-1H-pyrazolo[3,4-d]pyrimidin-4-amine]	7.61 % Inh	9.02 % Inh	–	6.45 % Inh	12.1 % Inh	–
COc1cc(-c2nn(C3Cc4ccccc4C3)c3ncnc(N)c23)cc(Cl)c1OC [Compound No. 80, 3-(3-chloro-4,5-dimethoxyphenyl)-1-(2,3-dihydro-1H-inden-2-yl)-1H-pyrazolo[3,4-d]pyrimidin-4-amine]	45.74 % Inh	68.21 % Inh	–	5.1 % Inh	29.99 % Inh	–
